Experimental data taken from patent publication US9616064B2, “Rho kinase inhibitors and methods of use” (H. LEE MOFFITT CANCER CENTER AND RESEARCH INSTITUTE, INC., priority 2011, dated 2017).
Structures can show the parent of a compound that is named as a salt. Where two headings read alike, the source gives them in different places.

Legend:
ROCK2 = ROCK2 (Homo sapiens (Human), UniProt O75116); assay: Z-lyte FRET assay to measure kinase inhibition, ROCK2; assay type: biochemical
ROCK1 = ROCK1 (Homo sapiens (Human), UniProt Q13464); assay: Z-lyte FRET assay to measure kinase inhibition, ROCK1; assay type: biochemical; settings: for inhibition at 50 µM: read-out: ROCK1 % inhibition @ 50 μM, 50 μM compound; for inhibition at 100 µM: read-out: ROCK1 % inhibition @ 100 μM, 100 μM compound
ROCK1, sequence (Q13464 whole entry): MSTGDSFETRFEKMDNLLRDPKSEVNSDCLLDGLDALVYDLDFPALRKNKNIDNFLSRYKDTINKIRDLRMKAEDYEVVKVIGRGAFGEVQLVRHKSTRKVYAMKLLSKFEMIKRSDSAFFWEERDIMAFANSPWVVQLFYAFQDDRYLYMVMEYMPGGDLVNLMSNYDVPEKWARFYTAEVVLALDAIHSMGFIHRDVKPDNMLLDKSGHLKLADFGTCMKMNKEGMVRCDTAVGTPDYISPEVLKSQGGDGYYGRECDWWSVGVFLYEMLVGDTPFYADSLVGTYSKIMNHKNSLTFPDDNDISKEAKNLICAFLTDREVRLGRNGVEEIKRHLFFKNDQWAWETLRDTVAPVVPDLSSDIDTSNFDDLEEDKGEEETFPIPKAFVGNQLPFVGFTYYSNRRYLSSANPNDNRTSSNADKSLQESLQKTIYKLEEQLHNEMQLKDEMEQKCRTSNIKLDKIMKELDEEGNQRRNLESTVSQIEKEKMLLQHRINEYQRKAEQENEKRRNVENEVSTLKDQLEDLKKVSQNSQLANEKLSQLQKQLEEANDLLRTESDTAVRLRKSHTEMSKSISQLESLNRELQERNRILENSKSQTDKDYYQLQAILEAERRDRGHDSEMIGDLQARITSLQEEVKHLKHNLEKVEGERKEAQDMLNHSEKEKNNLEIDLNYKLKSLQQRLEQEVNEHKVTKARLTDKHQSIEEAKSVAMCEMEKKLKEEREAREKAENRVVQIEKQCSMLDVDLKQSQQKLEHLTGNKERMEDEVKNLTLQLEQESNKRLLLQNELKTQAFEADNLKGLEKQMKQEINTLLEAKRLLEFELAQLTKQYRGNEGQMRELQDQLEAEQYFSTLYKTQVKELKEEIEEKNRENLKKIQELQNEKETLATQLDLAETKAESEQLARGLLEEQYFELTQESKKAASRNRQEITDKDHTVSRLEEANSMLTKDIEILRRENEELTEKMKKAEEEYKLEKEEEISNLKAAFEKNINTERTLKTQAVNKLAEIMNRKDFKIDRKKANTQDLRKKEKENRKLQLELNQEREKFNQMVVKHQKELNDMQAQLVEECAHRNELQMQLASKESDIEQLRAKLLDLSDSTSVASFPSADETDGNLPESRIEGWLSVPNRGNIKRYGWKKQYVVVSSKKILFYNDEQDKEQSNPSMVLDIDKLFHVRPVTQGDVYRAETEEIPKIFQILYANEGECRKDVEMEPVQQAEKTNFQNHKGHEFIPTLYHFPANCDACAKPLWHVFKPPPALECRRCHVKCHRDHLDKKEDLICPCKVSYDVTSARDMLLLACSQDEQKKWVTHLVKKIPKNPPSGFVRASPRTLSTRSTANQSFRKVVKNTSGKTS

ROCK2, sequence (O75116 whole entry, species assumed): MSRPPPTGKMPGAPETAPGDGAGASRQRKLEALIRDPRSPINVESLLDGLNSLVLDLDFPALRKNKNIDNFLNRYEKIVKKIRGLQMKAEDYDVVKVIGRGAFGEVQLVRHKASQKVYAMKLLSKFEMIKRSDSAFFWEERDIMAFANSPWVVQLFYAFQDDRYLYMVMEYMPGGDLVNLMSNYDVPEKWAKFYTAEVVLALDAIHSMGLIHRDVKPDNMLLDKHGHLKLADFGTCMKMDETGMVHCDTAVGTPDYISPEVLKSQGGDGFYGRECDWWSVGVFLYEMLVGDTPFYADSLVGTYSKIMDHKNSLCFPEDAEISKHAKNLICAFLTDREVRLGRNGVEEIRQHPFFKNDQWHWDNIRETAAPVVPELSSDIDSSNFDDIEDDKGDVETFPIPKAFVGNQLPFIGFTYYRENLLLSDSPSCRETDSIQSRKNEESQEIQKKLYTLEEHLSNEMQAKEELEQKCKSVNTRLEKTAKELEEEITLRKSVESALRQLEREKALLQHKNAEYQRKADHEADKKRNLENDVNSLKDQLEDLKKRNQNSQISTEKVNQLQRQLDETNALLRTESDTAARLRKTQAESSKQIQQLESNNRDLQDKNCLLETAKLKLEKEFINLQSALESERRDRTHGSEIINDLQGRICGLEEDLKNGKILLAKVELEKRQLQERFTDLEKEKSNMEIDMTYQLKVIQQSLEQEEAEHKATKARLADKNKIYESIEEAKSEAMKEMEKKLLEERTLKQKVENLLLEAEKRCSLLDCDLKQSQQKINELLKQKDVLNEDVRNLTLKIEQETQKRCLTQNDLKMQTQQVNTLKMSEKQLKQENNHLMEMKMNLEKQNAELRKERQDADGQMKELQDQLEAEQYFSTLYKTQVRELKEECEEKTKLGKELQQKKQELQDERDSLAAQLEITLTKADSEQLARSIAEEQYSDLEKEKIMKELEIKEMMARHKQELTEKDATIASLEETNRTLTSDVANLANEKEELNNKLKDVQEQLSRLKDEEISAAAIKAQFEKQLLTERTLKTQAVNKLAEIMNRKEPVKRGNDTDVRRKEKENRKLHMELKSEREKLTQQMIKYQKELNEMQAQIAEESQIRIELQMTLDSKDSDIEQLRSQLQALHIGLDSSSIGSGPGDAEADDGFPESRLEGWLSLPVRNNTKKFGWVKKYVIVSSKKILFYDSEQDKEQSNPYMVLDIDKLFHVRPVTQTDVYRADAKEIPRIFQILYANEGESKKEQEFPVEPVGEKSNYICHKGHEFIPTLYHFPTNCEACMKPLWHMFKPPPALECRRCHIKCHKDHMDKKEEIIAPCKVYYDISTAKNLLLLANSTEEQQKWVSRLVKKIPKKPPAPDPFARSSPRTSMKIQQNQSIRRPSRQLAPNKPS

Row | Compound | IC50 (ROCK2) [nM] | inhibition at 50 µM (ROCK1) [%] | IC50 (ROCK1; read-out: ROCK1 IC50) [µM] | also measured
1 | Nc1nccc(Nc2ccccc2)n1 | > 50000 | 47 ± 6 | 55.3 ± 13.4 | –
2 | Nc1nccc(Nc2cccc(S(N)(=O)=O)c2)n1 | 6100 ± 1100 | 90 ± 2 | 6.1 ± 0.6 | –
3 | NC(=O)c1ccc(Nc2ccnc(N)n2)cc1 | 11500 ± 1200 | 82 ± 2 | 13.3 ± 1.7 | –
4 | NC(=O)c1cccc(Nc2ccnc(N)n2)c1 | 33300 ± 2800 | 54 ± 4 | 38.9 ± 0.9 | –
5 | CS(=O)(=O)c1cccc(Nc2ccnc(N)n2)c1 | 7300 ± 2000 | 90 ± 1 | 6.7 ± 1.3 | –
6 | Nc1nccc(N2CCc3ccccc32)n1 | 3400 ± 300 | 85 ± 4 | 6.6 ± 0.5 | –
7 | CSc1ccc(Nc2ccnc(N)n2)cc1 | 17100 ± 2800 | 76 ± 2 | 21 ± 8.8 | –
8 | COC(=O)c1cccc(Nc2ccnc(N)n2)c1 | 39600 ± 6200 | 63 ± 5 | 37 ± 8.8 | –
9 | COC(=O)c1ccc(Nc2ccnc(N)n2)cc1 | 13900 ± 1700 | 77 ± 3 | 20.5 ± 8 | –
10 | Nc1nccc(N2CCCc3ccccc32)n1 | 35300 ± 5100 | 69 ± 1 | 19.8 ± 4.3 | –
11 | CC1Cc2ccccc2N1c1ccnc(N)n1 (stereo not drawn) | 1900 ± 400 | 97 ± 1 | 1.7 ± 0.2 | –
12 | Nc1nccc(Nc2ccc([N+](=O)[O-])cc2)n1 | 3700 ± 800 | 89 ± 2 | 3.9 ± 0.3 | –
13 | Nc1nccc(Nc2cccc([N+](=O)[O-])c2)n1 | 7820 ± 2300 | 91 ± 2 | 4.86 ± 0.6 | –
14 | COc1cccc(Nc2ccnc(N)n2)c1 | 42500 ± 6700 | 63 ± 5 | 30.2 ± 2.5 | –
15 | Nc1nccc(Nc2ccc(OC(F)F)cc2)n1 | 23400 ± 5500 | 64 ± 7 | 30 ± 3.2 | –
16 | Nc1nccc(N2CCc3cc(Cl)ccc32)n1 | 1200 ± 200 | 73 ± 3 | 1.5 ± 0.2 | –
17 | Nc1nccc(-n2cnc3ccccc32)n1 | 37400 ± 4000 | 50 ± 1 | 38.7 ± 1.6 | –
18 | Nc1nccc(-n2ccc3ccccc32)n1 | 4000 ± 300 | 88 ± 4 | 4.8 ± 0.3 | –
19 | Nc1nccc(N2CCc3ccc([N+](=O)[O-])cc32)n1 | 1800 ± 300 | 51 ± 1 | 2.2 ± 0.3 | –
20 | Nc1nccc(N2CCc3cc(F)ccc32)n1 | 700 ± 100 | 89 ± 7 | 1.2 ± 0.2 | –
21 | CS(=O)(=O)c1ccc2c(c1)CCN2c1ccnc(N)n1 | 37900 ± 2000 | 49 ± 4 | 41 ± 2.3 | –
22 | CC1Cc2cc([N+](=O)[O-])ccc2N1c1ccnc(N)n1 (stereo not drawn) | 400 ± 100 | 98 ± 2 | 0.5 ± 0.1 | –
23 | Nc1nccc(N2CCc3cc(Br)ccc32)n1 | 1200 ± 100 | 83 ± 5 | 1.7 ± 0.3 | –
24 | CC1CN(c2ccnc(N)n2)c2ccccc21 (stereo not drawn) | 2600 ± 100 | 93 ± 2 | 4.8 ± 0.5 | –
25 | CC1Cc2cc(Cl)ccc2N1c1ccnc(N)n1 (stereo not drawn) | 500 ± 30 | 87 ± 10 | 1.2 ± 0.1 | –
26 | Nc1nccc(N2CCc3cc(S(N)(=O)=O)ccc32)n1 | 10300 ± 900 | 73 ± 4 | 25.8 ± 2.6 | –

Row | Compound | IC50 (ROCK2) [nM] | inhibition at 50 µM (ROCK1) [%] | IC50 (ROCK1; read-out: ROCK1 IC50) [µM] | also measured
27 | CC1Cc2cc(F)ccc2N1c1ccnc(N)n1 (stereo not drawn) | 200 ± 10 | 97 ± 4 | 0.4 ± 0.1 | –
28 | Nc1nccc(N2CCc3ccc(F)cc32)n1 | 1340 ± 90 | 89 ± 4 | 3.7 ± 0.4 | –
29 | Nc1nccc(-n2ccc3ccc(F)cc32)n1 | 1700 ± 100 | 86 ± 5 | 4.9 ± 0.5 | –
30 | Nc1nccc(-n2ccc3cc(Br)ccc32)n1 | 1700 ± 300 | 89 ± 1 | 2.1 ± 0.3 | –
31 | Nc1nccc(-n2ccc3ccc(Cl)cc32)n1 | 1000 ± 300 | 88 ± 0.3 | 1.2 ± 0.2 | –
32 | COc1ccc2ccn(-c3ccnc(N)n3)c2c1 | 4900 ± 1000 | 88 ± 2 | 4.9 ± 0.5 | –
33 | Nc1nccc(-n2ccc3c(OCc4ccccc4)cccc32)n1 | 400 ± 100 | 80 ± 3 | 0.8 ± 0.5 | –
34 | COc1ccc2c(ccn2-c2ccnc(N)n2)c1 | 250 ± 130 | 96 ± 3 | 0.4 ± 0.1 | –
35 | Cc1ccc2c(ccn2-c2ccnc(N)n2)c1 | 7100 ± 2100 | 82 ± 5 | 8.3 ± 0.9 | –
36 | COc1ccc2c(c1)c(CCNC(C)=O)cn2-c1ccnc(N)n1 | 5300 ± 1200 | 89 ± 1 | 4.9 ± 0.8 | –
37 | Nc1nccc(-n2ccc3c(C(=O)NCc4ccccc4)cccc32)n1 | 200 ± 100 | 92 ± 1 | 1 ± 0.5 | –
38 | Nc1nccc(-n2ccc3c(C(=O)NCCc4ccccc4)cccc32)n1 | 500 ± 100 | 91 ± 1 | 2 ± 0.5 | –
39 | Nc1nccc(-n2ccc3cc(NC(=O)CCc4ccccc4)ccc32)n1 | 8400 ± 2000 | 60 ± 2 | 54.1 ± 1.1 | –
40 | Nc1nccc(-n2ccc3cc(C(=O)NCCc4ccccc4)ccc32)n1 | 700 ± 300 | 96 ± 1 | 2.8 ± 0.3 | –
41 | Nc1nccc(-n2ccc3cc(C(=O)NCc4ccccc4)ccc32)n1 | 300 ± 100 | 96 ± 1 | 2.4 ± 1.6 | –
42 | Nc1nccc(N2CCc3c(OCc4ccccc4)cccc32)n1 | 250 ± 70 | 90 ± 1 | 0.48 ± 0.099 | –
43 | Nc1nccc(-n2ccc3cc(OCc4ccccc4)ccc32)n1 | 16300 ± 5500 | 76 ± 2 | 39 ± 6.9 | –
44 | Nc1nccc(-n2ccc3c(OCCc4ccccc4)cccc32)n1 | 17000 ± 1700 | 63 ± 5 | 53.6 ± 4.1 | –
45 | Nc1nccc(-n2ccc3c(OCc4ccc(Cl)cc4)cccc32)n1 | 460 ± 80 | 71 ± 2 | 1.9 ± 0.42 | –
46 | Nc1nccc(-n2ccc3c(OCc4cccc(Cl)c4)cccc32)n1 | 32700 ± 8100 | 44 ± 9 | 34.6 ± 8.2 | –
47 | Nc1nccc(-n2ccc3c(OCc4ccccc4Cl)cccc32)n1 | 19000 ± 5900 | 62 ± 6 | 29.1 ± 8.2 | –
48 | COc1cccc(CNC(=O)c2cccc3c2ccn3-c2ccnc(N)n2)c1 | 40 ± 30 | 93 ± 7 | 0.15 ± 0.02 | –
49 | Nc1nccc(-n2ccc3c(C(=O)NCc4cccc(Cl)c4)cccc32)n1 | 720 ± 130 | 86 ± 4 | 6.8 ± 3 | –
50 | Nc1nccc(-n2ccc3c(C(=O)NCc4cccc(F)c4)cccc32)n1 | 260 ± 90 | 72 ± 10 | 2.7 ± 1.78 | –
51 | Nc1nccc(-n2ccc3c(C(=O)NCc4ccc(F)cc4)cccc32)n1 | 1100 ± 490 | 70 ± 3 | 10.5 ± 1 | –
52 | COc1ccccc1CNC(=O)c1cccc2c1ccn2-c1ccnc(N)n1 | 1800 ± 680 | 69 ± 3 | 6 ± 2 | –

Row | Compound | IC50 (ROCK2) [nM] | inhibition at 50 µM (ROCK1) [%] | IC50 (ROCK1; read-out: ROCK1 IC50) [µM] | also measured
53 | C[C@H](NC(=O)c1cccc2c1ccn2-c1ccnc(N)n1)c1ccccc1 | 1200 ± 320 | 102.2 ± 0.2 | 3.43 ± 0.44 | –
54 | Nc1nccc(-n2ccc3c(C(=O)NCc4ccccc4F)cccc32)n1 | 920 ± 480 | 88.7 ± 5.96 | 5.67 ± 0.32 | –
55 | CC[C@@H](NC(=O)c1cccc2c1ccn2-c1ccnc(N)n1)c1ccccc1 | – | – | 1.77 ± 0.24 | inhibition at 100 µM (ROCK1): 122%
56 | COC[C@H](NC(=O)c1cccc2c1ccn2-c1ccnc(N)n1)c1ccccc1 | – | – | 15.4 ± 6.04 | inhibition at 100 µM (ROCK1): 91%
57 | COc1cccc(CN(C)C(=O)c2cccc3c2ccn3-c2ccnc(N)n2)c1 | – | – | 15.2 ± 3.74 | inhibition at 100 µM (ROCK1): 89%
58 | COc1cccc(CNC(=O)c2cccc3c2ccn3-c2ccnc(NC(C)=O)n2)c1 | – | – | 15.4 ± 4.02 | inhibition at 100 µM (ROCK1): 80%
59 | COCCOc1cccc(CNC(=O)c2cccc3c2ccn3-c2ccnc(N)n2)c1 | – | – | 9.31 ± 8.68 | inhibition at 100 µM (ROCK1): 86%
60 | CCOc1cccc(CNC(=O)c2cccc3c2ccn3-c2ccnc(N)n2)c1 | – | – | 3.37 ± 0.53 | inhibition at 100 µM (ROCK1): 61%
61 | Nc1nccc(-n2ccc3c(C(=O)NCc4ccccc4-c4ccccc4)cccc32)n1 | – | – | – | inhibition at 100 µM (ROCK1): 7%
62 | CC(=O)N(C)c1cccc(CNC(=O)c2cccc3c2ccn3-c2ccnc(N)n2)c1 | – | – | 40.3 ± 11 | inhibition at 100 µM (ROCK1): 47%
63 | Nc1nccc(-n2ccc3c(C(=O)NCc4cccc(N5CCCC5=O)c4)cccc32)n1 | – | – | 8.31 ± 7.39 | inhibition at 100 µM (ROCK1): 99%
64 | COc1cccc(CNC(=O)c2cccc(Nc3ccnc(N)n3)c2)c1 | – | – | 7.3 ± 1.29 | inhibition at 100 µM (ROCK1): 97%
65 | COc1cccc(CNS(=O)(=O)c2cccc(Nc3ccnc(N)n3)c2)c1 | – | – | 33.4 ± 8.52 | inhibition at 100 µM (ROCK1): 70%
66 | COc1cccc([C@@H](C)NC(=O)c2cccc3c2ccn3-c2ccnc(N)n2)c1 | – | – | 0.213 ± 0.025 | inhibition at 100 µM (ROCK1): 92%
67 | COc1cccc([C@H](C)NC(=O)c2cccc3c2ccn3-c2ccnc(N)n2)c1 | – | – | 1.38 ± 0.63 | inhibition at 100 µM (ROCK1): 97%
68 | Nc1nccc(Nc2ccccc2Cl)n1 | – | – | – | inhibition at 100 µM (ROCK1): 39%
69 | Nc1nccc(Nc2cccc(Cl)c2)n1 | – | – | 5.71 ± 1.44 | inhibition at 100 µM (ROCK1): 89%
70 | COc1cccc(CNC(=O)c2cccc3c2CCN3c2ccnc(N)n2)c1 | 250 ± 20 | 92.8 ± 3.64 | 1.62 ± 0.86 | –
71 | CC[C@H](NC(=O)c1cccc2c1ccn2-c1ccnc(N)n1)c1ccccc1 | – | – | 9.76 ± 0.86 | inhibition at 100 µM (ROCK1): 88%
72 | Nc1nccc(Nc2ccc(S(N)(=O)=O)cc2)n1 [1aa, 4-(2-Aminopyrimidin-4-ylamino)benzenesulfonamide hydrochloride] | – | – | – | IC50 (ROCK2; hydrochloride): 25000 nM; IC50 (ROCK1; hydrochloride, read-out: ROCK1 IC50): 38 µM
73 | Nc1nccc(Nc2ccc(S(N)(=O)=O)cc2)n1 [NSC-135784, reference compound] | – | – | – | IC50 (ROCK1; NCI sample, screening hit, weak inhibitor, read-out: IC50 (screen of NCI Diversity set, NCI sample)): 92 µM
74 | Nc1nccc(Nc2ccc(S(N)(=O)=O)cc2)n1 [drawing 83] | 25500 ± 5800 | 60 ± 3 | 38.5 ± 3.4 | –
75 | CC(NC(=O)c1cccc2c1ccn2-c1ccnc(N)n1)c1ccccc1 (stereo not drawn) [drawing 177] | 210 ± 150 | 85 ± 6 | 1.7 ± 0.5 | –
76 | CC(NC(=O)c1cccc2c1ccn2-c1ccnc(N)n1)c1ccccc1 (stereo not drawn) [drawing 178] | 60 ± 20 | – | 0.12 ± 0.02 | ROCK1 % inhibition @ 50 μM (ROCK1; 50 μM compound): 105 ± 1%
